Experimental data from US9675592B2, “Methods and compositions for bacteria infections” (priority 2013, dated 2017).

Experiments:
[1] = test system: test strain (923 pPvra-lux); assay: Growth inhibition by compound alone (maximum non-growth-inhibitory concentration); assay type: cell-based, Staphylococcus aureus; conditions: compound alone; maximum concentration where it did NOT inhibit growth
[2] = test system: vraSR promoter (Pvra-lux reporter in strain 923); assay type: cell-based, Staphylococcus aureus; conditions: for RL Ox avg: Top 40 library, with oxacillin, compound at maximum non-GI conc; for vraSR repressing synergist: overall class from syn and rep
Protocol: In the secondary screen each microtiter plate contained either cells in TSB alone (16 replicates), cells with oxacillin (2 μg/mL, 31 replicates), or cells with test compound and oxacillin (2 μg/mL, 49 wells). Each compound was assayed in four separate biological replicates. […]

[3] = test system: vraSR promoter (Pvra-lux reporter in strain 923); assay: Primary screen, relative luminescence (vraSR expression); conditions: primary screen, compound 10 μM with oxacillin 2 μg/mL; <0.50 = vraSR repressed = hit
[4] = test system: test strain 923 pPvra-lux; assay: Secondary screen / synergy confirmation of Top 40, relative growth with oxacillin; assay type: cell-based, Staphylococcus aureus; conditions: Top 40 library, compound at maximum non-GI conc
Protocol: In the secondary screen each microtiter plate contained either cells in TSB alone (16 replicates), cells with oxacillin (2 μg/mL, 31 replicates), or cells with test compound and oxacillin (2 μg/mL, 49 wells). Each compound was assayed in four separate biological replicates.
Synergy Confirmation of “Top 40”. […]

[5] = test system: test strain 923 pPvra-lux (USA300 MRSA); assay: Primary screen, relative growth in presence of oxacillin; conditions: compound 10 μM with oxacillin 2 μg/mL, absorbance 24 h, <0.50 = dead cells = hit

Row | SMILES | maximum non-GI conc [1] [µg/mL] | RL Ox avg [2] | vraSR repressing synergist [2] | RL avg (relative luminescence) [3] | RG Ox avg [4] | RG avg (relative growth) [5]
1 | OC(c1ccccc1)c1nc2ccccc2n1Cc1ccc(Cl)c(Cl)c1 (stereo not drawn) [F3068-0037] | 400 | 0.11 | 1. confirmed | 0.05 | −0.01 | −0.02
2 | O=S(=O)(Nc1cccc(-c2nc3ccccc3s2)c1)c1ccc(F)c(Cl)c1 [F3394-0078] | 40 | 0.41 | 3. no effect | 0.26 | 1.24 | 0.26
3 | Cc1ccc(Nc2nc(N3CCN(Cc4ccccc4)CC3)nc3nccnc23)cc1C [F2359-0308] | 400 | 0.01 | 1. confirmed | 0.07 | 0.01 | 0.22
4 | O=C(Nc1ccc(Cl)c(C(F)(F)F)c1)N1CCN(c2cc(-n3cccn3)ncn2)CC1 [F5562-0130] | 40 | 0.57 | 3. no effect | −0.08 | 1.03 | 0.02
5 | Cc1cc(SCC(=O)Nc2cccc(C(F)(F)F)c2)n2ncc(-c3ccccc3)c2n1 [F3305-0354] | 40 | 0.61 | 3. no effect | 0.03 | 1.01 | 0.00
6 | Cc1ccc(S(=O)(=O)Nc2ccccc2C(=O)Nc2nc3c(Cl)ccc(Cl)c3s2)cc1 [F1813-0710] | 400 | 0.20 | 2. possible | 0.01 | 0.69 | −0.03
7 | CC(=O)Nc1ccc(Nc2cc(C(C)(C)C)nc3c(-c4ccccc4)c(C)nn23)cc1 [F3348-0030] | 400 | 0.05 | 1. confirmed | 0.12 | 0.01 | 0.05
8 | O=C(Nc1nnc(-c2ccccc2Cl)o1)c1ccc2ccccc2c1 [F1374-0082] | 40 | 0.08 | 2. possible | 0.35 | 0.67 | 0.08
9 | Fc1ccc(-c2csc3ncnc(Sc4nnnn4-c4ccccc4)c23)cc1 [F1142-4245] | 400 | 0.04 | 1. confirmed | 0.36 | 0.25 | 0.03
10 | O=S(=O)(Nc1cccc(-c2nc3ccccc3s2)c1)c1ccc(Cl)s1 [F2399-0063] | 400 | 0.04 | 1. confirmed | 0.12 | −0.01 | 0.28
11 | CC1CCN(C(C)CNC(=O)Nc2ccc(C(F)(F)F)cc2)CC1 (stereo not drawn) [F2438-0002] | 40 | 0.62 | 3. no effect | −0.18 | 0.95 | −0.02
